Laboratory results taken from ChEMBL document CHEMBL1201862, “PubChem BioAssay data set” (2004).
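Briefly, cells in 96-well plates were exposed to five compound concentrations for 48 h, and endpoints were estimated by linear interpolation. Abbreviation: GI50, concentration required for 50% inhibition of growth.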 Active and inactive are the calls of the source. Cut-off read from the data, not from the text of the source: active = GI50 up to about 1.1 µM and inactive = higher.

Tests used:
Assay in all cases: DTP human tumour cell line panel, 48 h
ACHN = test system: ACHN
CCRF-CEM = test system: CCRF-CEM
COLO 205 = test system: COLO 205
HCT-116 = test system: HCT-116
HOP-92 = test system: HOP-92
IGROV-1 = test system: IGROV-1
K562 = test system: K562
LOX IMVI = test system: LOX IMVI
MDA-MB-435 = test system: MDA-MB-435
MOLT-4 = test system: MOLT-4
Malme-3M = test system: Malme-3M
NCI-H522 = test system: NCI-H522
RPMI-8226 = test system: RPMI-8226
SF-539 = test system: SF-539
SK-MEL-2 = test system: SK-MEL-2
SK-MEL-5 = test system: SK-MEL-5
SN12C = test system: SN12C
UACC-257 = test system: UACC-257
SK-OV-3 = test system: SK-OV-3
NCI/ADR-RES = test system: NCI/ADR-RES

Structure (SMILES) | GI50 (ACHN) | GI50 (CCRF-CEM) | GI50 (COLO 205) | GI50 (HCT-116) | GI50 (HOP-92) | GI50 (IGROV-1) | GI50 (K562) | GI50 (LOX IMVI) | GI50 (MDA-MB-435) | GI50 (MOLT-4) | GI50 (Malme-3M) | GI50 (NCI-H522) | GI50 (RPMI-8226) | GI50 (SF-539) | GI50 (SK-MEL-2) | GI50 (SK-MEL-5) | GI50 (SN12C) | GI50 (UACC-257) | GI50 (SK-OV-3) | GI50 (NCI/ADR-RES)
CC(=O)OCCOCn1c2c(c(=O)[nH]c1=O)CCC2 | > 100 µM (inactive) | > 100 µM (inactive) | > 100 µM (inactive) | > 100 µM (inactive) | > 100 µM (inactive) | > 100 µM (inactive) | > 100 µM (inactive) | > 100 µM (inactive) | > 100 µM (inactive) | > 100 µM (inactive) | > 100 µM (inactive) | > 100 µM (inactive) | > 100 µM (inactive) | > 100 µM (inactive) | > 100 µM (inactive) | > 100 µM (inactive) | > 100 µM (inactive) | > 100 µM (inactive) | – | –
O=c1[nH]cc(C(F)(C(F)(F)F)C(F)(F)F)c(=O)[nH]1 | > 100 µM (inactive) | > 100 µM (inactive) | > 100 µM (inactive) | > 100 µM (inactive) | > 100 µM (inactive) | > 100 µM (inactive) | > 100 µM (inactive) | > 100 µM (inactive) | – | > 100 µM (inactive) | > 100 µM (inactive) | > 100 µM (inactive) | > 100 µM (inactive) | > 100 µM (inactive) | > 100 µM (inactive) | > 100 µM (inactive) | > 100 µM (inactive) | > 100 µM (inactive) | > 100 µM (inactive) | –
Cc1nnc(N/N=C(/C(=O)C(C#N)c2ccccc2)C(C#N)c2ccccc2)n1N (centres undefined) | 22.3 µM (inactive) | 2.12 µM (inactive) | 4.76 µM (inactive) | 2.46 µM (inactive) | > 100 µM (inactive) | > 58.9 µM (inactive) | 3.73 µM (inactive) | 1.54 µM (inactive) | – | 0.845 µM (active) | 4.18 µM (inactive) | 17.9 µM (inactive) | 19.6 µM (inactive) | > 48.6 µM (inactive) | 5.25 µM (inactive) | 18.3 µM (inactive) | 3.13 µM (inactive) | 5.26 µM (inactive) | > 61.4 µM (inactive) | –
O=C(O)CN(c1ccccc1)S(=O)(=O)c1ccc(NC(=O)c2ccccc2)cc1 | > 100 µM (inactive) | > 100 µM (inactive) | > 100 µM (inactive) | – | > 100 µM (inactive) | > 100 µM (inactive) | > 100 µM (inactive) | > 100 µM (inactive) | – | > 100 µM (inactive) | > 100 µM (inactive) | > 100 µM (inactive) | > 100 µM (inactive) | > 100 µM (inactive) | > 100 µM (inactive) | – | > 100 µM (inactive) | > 100 µM (inactive) | > 100 µM (inactive) | –
O=c1c(O)c(-c2ccccc2)n(O)c2ccc(Cl)cc12 | 30.6 µM (inactive) | 23.9 µM (inactive) | 36.1 µM (inactive) | 10.9 µM (inactive) | 34.6 µM (inactive) | 29.6 µM (inactive) | 26.5 µM (inactive) | 11.4 µM (inactive) | – | 32.7 µM (inactive) | 60.1 µM (inactive) | 21.4 µM (inactive) | 23.4 µM (inactive) | 20 µM (inactive) | 21.5 µM (inactive) | 17.5 µM (inactive) | 20.8 µM (inactive) | 25.1 µM (inactive) | 30.8 µM (inactive) | –
CC1CC(C)C(C(O)CC2CC(=O)N(c3ccccc3)C(=O)C2)C(O)C1 (centres undefined) | > 100 µM (inactive) | > 100 µM (inactive) | > 100 µM (inactive) | > 100 µM (inactive) | > 100 µM (inactive) | > 100 µM (inactive) | > 100 µM (inactive) | > 100 µM (inactive) | – | > 100 µM (inactive) | > 100 µM (inactive) | > 100 µM (inactive) | > 100 µM (inactive) | > 100 µM (inactive) | – | – | > 100 µM (inactive) | > 100 µM (inactive) | > 100 µM (inactive) | –
COC(=O)c1c(-c2cc(OC)c(OC)c(OC)c2)oc2ccccc2c1=O | > 100 µM (inactive) | 36.7 µM (inactive) | 97.7 µM (inactive) | 48.3 µM (inactive) | 96.6 µM (inactive) | > 100 µM (inactive) | 42.8 µM (inactive) | 37.4 µM (inactive) | – | 70.1 µM (inactive) | > 100 µM (inactive) | 94 µM (inactive) | 36.2 µM (inactive) | > 100 µM (inactive) | > 100 µM (inactive) | 59.7 µM (inactive) | > 100 µM (inactive) | > 100 µM (inactive) | > 100 µM (inactive) | –
CN(C)/C(F)=P\C(F)(F)F (centres undefined) | > 100 µM (inactive) | > 100 µM (inactive) | > 100 µM (inactive) | > 100 µM (inactive) | > 100 µM (inactive) | > 100 µM (inactive) | > 100 µM (inactive) | > 100 µM (inactive) | – | > 100 µM (inactive) | > 100 µM (inactive) | > 100 µM (inactive) | > 100 µM (inactive) | > 100 µM (inactive) | > 100 µM (inactive) | > 100 µM (inactive) | > 100 µM (inactive) | > 100 µM (inactive) | > 100 µM (inactive) | –
O=[N+]([O-])c1cc([N+](=O)[O-])c(C(Cl)C(Cl)c2ccccc2)cc1C(Cl)C(Cl)c1ccccc1 (centres undefined) | 1.77 µM (inactive) | 2.21 µM (inactive) | 1.73 µM (inactive) | 1.19 µM (inactive) | 1.6 µM (inactive) | 2.46 µM (inactive) | 1.69 µM (inactive) | 1.64 µM (inactive) | – | 2.3 µM (inactive) | 1.76 µM (inactive) | 1.61 µM (inactive) | 1.07 µM (active) | 1.8 µM (inactive) | 2 µM (inactive) | 1.66 µM (inactive) | 1.75 µM (inactive) | 1.84 µM (inactive) | 6.34 µM (inactive) | –
COc1ccc(/C=C2\CCC(C)/C(=C\c3ccc(OC)c(OC)c3)C2=O)cc1OC (centres undefined) | 4.79 µM (inactive) | 2.11 µM (inactive) | 8.39 µM (inactive) | 3.78 µM (inactive) | – | 2.88 µM (inactive) | 3.36 µM (inactive) | 4.33 µM (inactive) | 3.76 µM (inactive) | 3.23 µM (inactive) | 4.58 µM (inactive) | – | 2.51 µM (inactive) | 3.42 µM (inactive) | 3.82 µM (inactive) | 3.61 µM (inactive) | 7.29 µM (inactive) | 2.88 µM (inactive) | 9.2 µM (inactive) | 3.5 µM (inactive)
COc1ccc(-c2c(C#N)c(S)n(NS(=O)(=O)c3ccc(C)cc3)c(=O)c2C#N)cc1 | 16.4 µM (inactive) | 4.06 µM (inactive) | 18.2 µM (inactive) | 14.4 µM (inactive) | 33.1 µM (inactive) | 14.6 µM (inactive) | 18.7 µM (inactive) | 13.9 µM (inactive) | – | 7.06 µM (inactive) | 24.6 µM (inactive) | 14.8 µM (inactive) | 3.42 µM (inactive) | 14.6 µM (inactive) | 15.3 µM (inactive) | 13.8 µM (inactive) | 17.2 µM (inactive) | 32 µM (inactive) | 32.8 µM (inactive) | 20.3 µM (inactive)
COc1ccc(SS(=O)(=O)c2ccc(OC)cc2)cc1 | 18.4 µM (inactive) | 2.64 µM (inactive) | 17.9 µM (inactive) | 16.1 µM (inactive) | 35.9 µM (inactive) | 10 µM (inactive) | 21.7 µM (inactive) | 17.5 µM (inactive) | – | 13.2 µM (inactive) | 33.3 µM (inactive) | 15.3 µM (inactive) | 27.5 µM (inactive) | 18.8 µM (inactive) | 36 µM (inactive) | 15.2 µM (inactive) | 20.3 µM (inactive) | 22.9 µM (inactive) | 34.2 µM (inactive) | –
CN1C(=O)C(=O)N2c3ccc(Cl)cc3C3(c4ccccc4)N=CC12O3 (centres undefined) | 4.7 µM (inactive) | 3.03 µM (inactive) | 4.02 µM (inactive) | 3.9 µM (inactive) | 2.39 µM (inactive) | 7.28 µM (inactive) | 3.45 µM (inactive) | 1.53 µM (inactive) | – | 3.07 µM (inactive) | 20 µM (inactive) | 2.4 µM (inactive) | 2.19 µM (inactive) | 3.27 µM (inactive) | 6.01 µM (inactive) | 5.52 µM (inactive) | 3.53 µM (inactive) | 5.79 µM (inactive) | 10.1 µM (inactive) | –
c1ccc(Nc2nnc(CSc3nc(-c4ccccc4)c(-c4ccccc4)[nH]3)s2)cc1 | 26.3 µM (inactive) | 15.5 µM (inactive) | 12.3 µM (inactive) | 17.2 µM (inactive) | 11.1 µM (inactive) | 21.3 µM (inactive) | – | 17 µM (inactive) | – | 10.1 µM (inactive) | 19.2 µM (inactive) | 17.2 µM (inactive) | 11.5 µM (inactive) | 26.4 µM (inactive) | 19 µM (inactive) | 15.2 µM (inactive) | 17.1 µM (inactive) | 20.5 µM (inactive) | 22.8 µM (inactive) | –
Cc1ccc(NC(=O)CCC(=O)C(C#N)c2ccc(Cl)cc2)cc1C (centres undefined) | > 100 µM (inactive) | > 100 µM (inactive) | – | > 100 µM (inactive) | > 100 µM (inactive) | > 100 µM (inactive) | > 100 µM (inactive) | > 100 µM (inactive) | – | > 100 µM (inactive) | > 100 µM (inactive) | > 100 µM (inactive) | > 100 µM (inactive) | > 100 µM (inactive) | > 100 µM (inactive) | > 100 µM (inactive) | > 100 µM (inactive) | > 100 µM (inactive) | – | –
